According to the NIST ThermoML archive (doi:10.1021/je8003832):
Numbers after ± are expanded uncertainties.

Assays:
[1] = 101 kPa, Liquid
[2] = xn = mol fraction of the nth substance listed; settings: 101 kPa, Liquid, x1 = 1

In the case of `CCCCn1cc[n+](C)c1.O=S(=O)([O-])C(F)(F)F` [1-butyl-3-methylimidazolium trifluoromethanesulfonate], the mass density ([1]; 303.15 K) is reported as 1298.4 ± 4 kg/m3, the viscosity ([1]; 303.15 K) is reported as 63.19 ± 4.1 mPa·s and the mass density ([1]; 308.15 K) is reported as 1294.9 ± 4.1 kg/m3. The viscosity ([1]; 308.15 K) was 51.73 ± 3.6 mPa·s, the mass density ([1]; 313.15 K) was 1291.4 ± 4.2 kg/m3 and the viscosity ([1]; 313.15 K) was 42.46 ± 2.8 mPa·s. The mass density ([1]; 318.15 K) was 1287.8 ± 4.3 kg/m3, the viscosity ([1]; 318.15 K) was 35.17 ± 2.3 mPa·s and the mass density ([1]; 323.15 K) was 1284.4 ± 4.5 kg/m3. For the same molecule, the viscosity ([1]; 323.15 K) was 29.55 ± 2 mPa·s, the mass density ([1]; 333.15 K) was 1277.4 ± 4.7 kg/m3 and the viscosity ([1]; 333.15 K) was 21.61 ± 1.5 mPa·s. It also gave a mass density ([1]; 343.15 K) of 1270.5 ± 4.9 kg/m3 and a viscosity ([1]; 343.15 K) of 16.38 ± 1.1 mPa·s.
`O` [water] + CCCCn1cc[n+](C)c1.O=S(=O)([O-])C(F)(F)F showed a viscosity ([2]; 303.15 K) of 0.7977 ± 0.081 mPa·s, a viscosity ([2]; 308.15 K) of 0.719 ± 0.074 mPa·s and a viscosity ([2]; 313.15 K) of 0.6532 ± 0.069 mPa·s. For the same molecule, the viscosity ([2]; 318.15 K) was 0.6001 ± 0.064 mPa·s, the viscosity ([2]; 323.15 K) was 0.547 ± 0.06 mPa·s and the mass density ([2]; 333.15 K) was 983.2 ± 3.3 kg/m3. For the same molecule, the viscosity ([2]; 333.15 K) was 0.4665 ± 0.053 mPa·s, the mass density ([2]; 343.15 K) was 977.8 ± 3.5 kg/m3 and the viscosity ([2]; 343.15 K) was 0.404 ± 0.048 mPa·s.
